This note sets out measurements from patent publication EP0462621A2, “Use of particular compounds for manufacture of pharmaceutical formulations for treatment against various parasites, mycoplasmas, other indications and other infections” (Prendergast, Patrick Thomas, priority 1990, dated 1991).

The subject of one data set is H9 cells. Kind of data set: Cytotoxicity on uninfected H9 cells, 10 days continuous exposure. The settings on record: read-out: ID50 - The concentration of IPA which kills 50% of the cells. In kind it is cell-based, human. The procedure:
The "Percent Dead Cells" are taken from Tables la(d) (iii) and la(d) (v) using the 10-day value, and the therapeutic index have been calculated for each drug concentration. The results of IPA are also graphed in Figures 16 and 17. Cytotoxicity (the dashed line) is calculated as the percent live cells.
The availability of toxicity data collected in the same time frame as required for determination of antiviral effectiveness allowed determination of values for two different cell lines. Figures 16 and 17 illustrate the curves obtained by plotting the cytotoxicity of IPA (as a percent of the control cell viability) versus the percent of inhibition of HIV-1 replication (as a percent of the control titer) when H9 and 81-66-45 cells were tested. The cytotoxicity data obtained with 10 days continuous exposure, using uninfected cells, were used since 10 days was the length of time required to carry out the infectivity test. As is apparent from Tables la-(d) (ii) - la(d) (v), toxicity is much lower when the drug is added to cells for one day and then removed, or when cells are exposed for only 1 or 4 days. It is difficult to mimic in-vivo exposure times, particularly if metabolites are more toxic than the parent compound and are readily cleared in-vivo but not in-vitro.

The nature of data set [1]: Stability of IPA on storage. The data set is classed as physicochemical. The procedure:
Compounds of Formula la (IPA) have especially low toxicity for pediatrics, and acceptable toxicity of adult humans, although it is somewhat higher than for pediatrics. IPA can be stored dry almost indefinitely if protected from light and stored at -75 °C. IPA is photosensitive and deteriorates at room temperature, whether in a solid form or in aqueous or ethanolic solutions. It was found in experiments that the breakdown rate of IPA is approximately 3% per month in a dark container at room temperature.
Two lots of IPA (Sample 1 and Sample 2) were tested.
Infrared spectra of IPA, taken from time to time, as described below, were used to monitor changes which may have occurred in the IPA over time. The compound was generally stored at -10° C. FT-IR data of fresh IPA are listed in the first column of Table la(m). A second FT-IR spectrum of the same compound, after storage at -10 C for 110 days, was taken and the data are listed in the second column of Table la(m). The melting point of the compound was taken at the same time. The original melting point was 128-130 C, and the second melting point, 110 days later, was 129-132 C.
The observed melting points compare favorably with literature melting points ranging from 126° C to 138° C.

Data set [2] relates to T.b. brucei, T.b. gambiense and T.b. rhodesiense. The data set is described as follows: Isolated bloodstream trypomastigote (TRY) in-vitro screen. The data set is classed as cell-based. The procedure:
Primary screening for new trypanocides has made extensive use of rodent systems, in which host survival time is a simple indicator of drug activity. In-vitro screens have used a variety of trypomastigote types (see Table 3, below). […] Most early in-vitro screens employed a short test in which bloodstream trypomastigotes were isolated from an infected rodent and maintained for up to 24 h in a simple drug-containing media. Two significant modifications of this technique include maintaining isolated bloodstream trypomastigotes in drug-containing media for 3-4 hours at 37° C in micro-titre plates and their subsequent viability assessed by the uptake of radiolabelled precursors or motility and infectivity to mice.
In-vitro studies on isolated bloodstream trypomastigotes were also used in the rational biochemical approaches towards the chemotherapy of T. brucei infections involving inhibitors of carbohydrate catabolism salicyl hydroxamic acid plus glycerol), of polyamine synthesis (methylgyoxal bis-guanylhydrazone and - DFMO), and of surface coat glycoprotein synthesis (Tunicamycin). In these studies, activity of the compounds are shown in-vitro and in-vivo, whereas the sensitivity of isolated bloodstream trypomastigotes to toxic oxygen radicals generated by naphthoquinones was not shown by the parasites in mice. The activity of the standard anti-trypanosomals-melarsoprol, pentamidine and suramin and tested compounds according to the present invention in in-vitro systems is shown in Table 3.
In-vitro and in-vivo models were used to test activities of a selection of many compounds. Those activities are summarized in Tables 1-3, showing variation between systems and species. Activities measured in the MP mo and HM mo models have shown the best correlation with results obtained in hamster and mouse models.

The subject of another data set is T lymphocytes. The data set is described as follows: Lymphocyte blastogenesis assay, T lymphocytes (PHA). The data set is classed as cell-based, human. The procedure: T and B lymphocytes from normal human donors were incubated for 30 minutes at various dose levels of the compounds indicated. The lymphocytes were added in triplicate wells in gentamicin and phytohemagglutinin (PHA) (a T cell mitogen), pokeweed mitogen (PWM) (a B cell mitogen) and allogeneic mononuclear cells (mixed leukocyte cultures; MLC) or media containing the above additives. The lymphocyte blastogenesis assay is described in detail below.
The data are represented as the mean of the three replicates. The results are presented in Charts la(e) (i) and la(e) (ii) (Figs. 1 and 2). […] A reduction of both T lymphocytes' abilities to proliferate was obtained when 100 u.M or greater concentrations of IPA was added to the cell cultures. Proliferative activity of T lymphocytes by 25% at the 30 u.M concentration of IPA in the experiment.
• 1. Mononuclear cells are separated from whole blood by differential centrifugation using a synthetic separation medium, or are thawed from a cryopreserved preparation. The cells are washed and resuspended in media (RPMI - 1640, L-Glutamine 2mM, Herpes Buffer 25mM, Gentamicin 50 ug/ml, Human AB Serum-heat inactivated (56°, 30°) 20%). • 2. A viable cell count is determined. • 3. Cell concentration is adjusted to 2 x 10^6 /ml in media. • 4. The cell suspension is added to wells of a 96-well flat bottom plate in 0.1 ml aliquots (2 x 10^5 cells). • 5. The selected mitogens and/or antigens (in media without serum) are added to the cells in the wells also in 0.1 ml aliquots. • 6. The cultures are incubated for 3-7 days (depending upon the mitogen or antigen) at 37° C in a humidified 5% C02 atmosphere. • 7. Six to eight hours before termination of cultures 0.05 ml (1 µCi) of ^3HTdR sp. act 6.7 Ci/mM (20 µCi/ml stock) is added to each well. • 8. At termination of cultures the cells are harvested onto strips of scintillation-grade fibreglass paper using a multiple sample harvester. • 9. Perforated disks from the fibreglass paper of the harvested cultures are placed each into scintillation vials to which is then added 5 ml of toluene based scintillation cocktail. • 10. The vials are counted in a liquid scintillation counter for one minute where the amount of incorporated ^3HTdR is determined.
net CPM = xCPM of mitogen/antigen cultures - xCPM of media cultures.

For data set [3], the system named is T. cruzi. Kind of data set: T. cruzi epimastigote (EPI) in-vitro screen. The data set is classed as cell-based.
Method: In-vitro chemotherapy screens have for many years used models involving three stages of the T. cruzi life cycle: • (1) Epimastigote. Dividing populations are easily cultivated in a range of defined and semi-defined media, but are equivalent to a vector stage of the life cycle. • (2) Trypomastigote. These are isolated from a rodent host and can be maintained as a non-dividing population for 24-48 h in media. • (3) Amastigote. Dividing populations can be cultivated in muscle cells, fibroblasts and macrophages, following infection with trypomastigotes. After the initial infection, there is normally a period of 4-5 days during which the amastigotes divide before transforming, via the epimastigote stage, back to trypomastigotes which escape from the cell. Drug activity is measured during this 4-5 day period. A dividing host cell population, low infection rate, and the presence of trypomastigotes in the overlay can complicate the interpretation of results.
Data set [4] concerns T. cruzi. The data set is described as follows: T. cruzi intracellular amastigote (AM) in-vitro screen. The data set is classed as cell-based.
Method: Dividing populations can be cultivated in muscle cells, fibroblasts and macrophages, following infection with trypomastigotes. After the initial infection, there is normally a period of 4-5 days during which the amastigotes divide before transforming, via the epimastigote stage, back to trypomastigotes which escape from the cell. Drug activity is measured during this 4-5 day period. A dividing host cell population, low infection rate, and the presence of trypomastigotes in the overlay can complicate the interpretation of results.
Intracellular amastigote models can use a range of muscle (skeletal and cardiac) and fibroblast (e.g. HeLa, HePa) cell lines, macrophages, and chick embryo cells. […] To overcome the problems of overgrowth of the monolayer and a low percentage of infected cells, often associated with the use of cell lines, irradiated rat L6 myoblasts are used.

With `CC(C)=CCNc1ncnc2c1ncn2[C@@H]1O[C@H](CO)[C@@H](O)[C@H]1O` [IPA, N^6-(Δ^2-isopentenyl) adenosine], in the data set with H9 cells, the CC50 was 50 µM. The “change in the compound on storage” value in data set [1] (Sample 1, tests over four months) was “no change in the compound”. For the same compound, in data set [1] (dark container at room temperature), the breakdown rate result is recorded as “approximately 3 % per month”. Also, the “change in the FT-IR spectrum on storage” value in data set [1] (storage at -10 C for 110 days) is given as “little change in the FT-IR spectrum”. Further, the “activity, isolated bloodstream TRY” value in data set [2] is on record as “+”. The T lymphocyte responsiveness result in the data set with T lymphocytes (10 µM, third experiment) is recorded as “Increased”. The T lymphocyte function result in the data set with T lymphocytes (1000 µM down to 10 µM, third experiment (Figs. 7 and 8)) is reported as “reductions”. Also, the T lymphocyte proliferation entry in the data set with T lymphocytes (0.1 - 10 µM, first experiment) is on record as “No effect or an increase”; with T lymphocytes (30 down to 10 u.M, second experiment (Figs. 3 and 4)), “No appreciable reduction”. Also, the “reduction in T lymphocyte function” value with T lymphocytes (30 -35 u.M, third experiment) was roughly 25%. Also, the “Proliferative activity of T lymphocytes, change” value in the data set with T lymphocytes (30 u.M, first experiment) was determined as 25%. In addition, the “T lymphocytes' abilities to proliferate” value in the data set with T lymphocytes (100 u.M or greater, first experiment (Figs. 1 and 2)) was “reduction”. The “activity, EPI” value with T. cruzi [3] (T. cruzi strain MR) is given as “++(Y,MR, Sonya)”; in the data set on T. cruzi [3] (T. cruzi strain Sonya), “++(Y,MR, Sonya)”; in the data set with T. cruzi [3] (T. cruzi strain Y) it was “++(Y,MR, Sonya)”. In addition, the “activity, intracellular AM” value in the data set on T. cruzi [4] (T. cruzi strain Sonya) and with T. cruzi [4] (T. cruzi strain Y) was “++(Y,Sonya)” in each case.
